From US9937234B2, “Compositions and methods for using and identifying antimicrobial agents” (priority 2013, dated 2018)

B1: human CXCL11 (protein, listed as Homo sapiens)
chain: QGFPMFKRGRCLCIGPGVKAVKVADIEKASIMYPSNNCDKIEVIITLKENKGQRCLNPKSKQARLIIKKVERKNF

Test system: B. anthracis Sterne strain ΔftsX
Assay type: cell-based, Bacillus anthracis

| Molecule | susceptibility of ΔftsX | susceptibility of ΔftsX exponential and stationary phase organisms | susceptibility of ΔftsX to CXCL10-mediated killing |
| --- | --- | --- | --- |
| human CXCL9 | resistant | – | – |
| human CXCL10 | – | both resistant | resistance |
| B1 | resistant | – | – |
